Test results taken from ChEMBL document CHEMBL4507261, “Data for DCP probe A-192621” (2021).

Tests used:
[1] = molecular target: Uncharacterized serine/threonine-protein kinase SBK3 (Homo sapiens) (UniProt P0C264); settings: Compound concentration 1000.0 nM
[2] = molecular target: MAP kinase-activated protein kinase 5 (Homo sapiens) (UniProt Q8IW41); settings: Compound concentration 1000.0 nM
[3] = molecular target: Mitogen-activated protein kinase kinase kinase 20 (Homo sapiens) (UniProt Q9NYL2); settings: Compound concentration 1000.0 nM
[4] = molecular target: Epithelial discoidin domain-containing receptor 1 (Homo sapiens) (UniProt Q08345); settings: Compound concentration 1000.0 nM
[5] = molecular target: Phosphatidylinositol 5-phosphate 4-kinase type-2 gamma (Homo sapiens) (UniProt Q8TBX8); settings: Compound concentration 1000.0 nM
[6] = molecular target: Mitogen-activated protein kinase 15 (Homo sapiens) (UniProt Q8TD08); settings: Compound concentration 1000.0 nM
[7] = molecular target: Ephrin type-A receptor 1 (Homo sapiens) (UniProt P21709); settings: Compound concentration 1000.0 nM
[8] = molecular target: Serine/threonine-protein kinase 32B (Homo sapiens) (UniProt Q9NY57); settings: Compound concentration 1000.0 nM
[9] = molecular target: Serine/threonine-protein kinase 10 (Homo sapiens) (UniProt O94804); settings: Compound concentration 1000.0 nM
[10] = molecular target: Activin receptor type-2A (Homo sapiens) (UniProt P27037); settings: Compound concentration 1000.0 nM
[11] = molecular target: Protein kinase C delta type (Homo sapiens) (UniProt Q05655); settings: Compound concentration 1000.0 nM
[12] = test system: Receptor-type tyrosine-protein kinase FLT3 (Homo sapiens), P36888 [UNDEFINED MUTATION]; settings: Compound concentration 1000.0 nM
[13] = molecular target: RAC-beta serine/threonine-protein kinase (Homo sapiens) (UniProt P31751); settings: Compound concentration 1000.0 nM
[14] = molecular target: Mitogen-activated protein kinase 3 (Homo sapiens) (UniProt P27361); settings: Compound concentration 1000.0 nM
[15] = molecular target: Testis-specific serine/threonine-protein kinase 3 (Homo sapiens) (UniProt Q96PN8); settings: Compound concentration 1000.0 nM
[16] = molecular target: Receptor-interacting serine/threonine-protein kinase 1 (Homo sapiens) (UniProt Q13546); settings: Compound concentration 1000.0 nM
[17] = molecular target: Mitogen-activated protein kinase kinase kinase 14 (Homo sapiens) (UniProt Q99558); settings: Compound concentration 1000.0 nM
[18] = molecular target: Histamine H2 receptor (Homo sapiens) (UniProt P25021); experiment: H2 (h) Eurofins-Cerep binding assay; design: ligand concentration 0.075 nM; settings: filed as antagonist, Compound concentration 10.0 uM
[19] = molecular target: Mitogen-activated protein kinase kinase kinase 13 (Homo sapiens) (UniProt O43283); settings: Compound concentration 1000.0 nM
[20] = test system: Mast/stem cell growth factor receptor Kit (Homo sapiens), P10721 [D816H]; settings: Compound concentration 1000.0 nM
[21] = molecular target: Mitogen-activated protein kinase 14 (Homo sapiens) (UniProt Q16539); settings: Compound concentration 1000.0 nM
[22] = molecular target: Serine/threonine-protein kinase MARK1 (Homo sapiens) (UniProt Q9P0L2); settings: Compound concentration 1000.0 nM
[23] = molecular target: Cyclin-dependent kinase 15 (Homo sapiens) (UniProt Q96Q40); settings: Compound concentration 1000.0 nM
[24] = molecular target: 5-hydroxytryptamine receptor 4 (Homo sapiens) (UniProt Q13639); experiment: 5-HT4 e (h) Eurofins-Cerep binding assay; design: ligand concentration 0.3 nM; settings: filed as antagonist, Compound concentration 10.0 uM
[25] = molecular target: Activated CDC42 kinase 1 (Homo sapiens) (UniProt Q07912); settings: Compound concentration 1000.0 nM
[26] = molecular target: Cholecystokinin receptor type A (Homo sapiens) (UniProt P32238); experiment: CCK1 (CCKA) (h) Eurofins-Cerep binding assay; design: ligand concentration 0.08 nM; settings: filed as agonist, Compound concentration 10.0 uM
[27] = test system: Epidermal growth factor receptor (Homo sapiens), P00533 [G719S]; settings: Compound concentration 1000.0 nM
[28] = molecular target: Serine/threonine-protein kinase D3 (Homo sapiens) (UniProt O94806); settings: Compound concentration 1000.0 nM
[29] = molecular target: Myosin light chain kinase family member 4 (Homo sapiens) (UniProt Q86YV6); settings: Compound concentration 1000.0 nM
[30] = molecular target: Mast/stem cell growth factor receptor Kit (Homo sapiens) (UniProt P10721); settings: Compound concentration 1000.0 nM
[31] = molecular target: Mitogen-activated protein kinase 10 (Homo sapiens) (UniProt P53779); settings: Compound concentration 1000.0 nM
[32] = molecular target: Serine/threonine-protein kinase LATS1 (Homo sapiens) (UniProt O95835); settings: Compound concentration 1000.0 nM
[33] = test system: Epidermal growth factor receptor (Homo sapiens), P00533 [UNDEFINED MUTATION]; settings: Compound concentration 1000.0 nM
[34] = molecular target: Glutamate NMDA receptor (Rattus norvegicus) (UniProt P35439+Q00959+Q00960+Q00961+Q62645+Q8VHN2+Q9R1M7); experiment: NMDA Eurofins-Cerep binding assay; type: protein-complex assay; design: ligand concentration 5 nM; settings: filed as antagonist, Compound concentration 10.0 uM
[35] = molecular target: SNF-related serine/threonine-protein kinase (Homo sapiens) (UniProt Q9NRH2); settings: Compound concentration 1000.0 nM
[36] = molecular target: Casein kinase I isoform epsilon (Homo sapiens) (UniProt P49674); settings: Compound concentration 1000.0 nM
[37] = molecular target: MAP kinase-interacting serine/threonine-protein kinase 1 (Homo sapiens) (UniProt Q9BUB5); settings: Compound concentration 1000.0 nM
[38] = test system: Mast/stem cell growth factor receptor Kit (Homo sapiens), P10721 [V559D,V654A]; settings: Compound concentration 1000.0 nM
[39] = molecular target: Tyrosine-protein kinase Lyn (Homo sapiens) (UniProt P07948); settings: Compound concentration 1000.0 nM
[40] = molecular target: Dual specificity mitogen-activated protein kinase kinase 3 (Homo sapiens) (UniProt P46734); settings: Compound concentration 1000.0 nM
[41] = molecular target: Phosphatidylinositol 4,5-bisphosphate 3-kinase catalytic subunit gamma isoform (Homo sapiens) (UniProt P48736); settings: Compound concentration 1000.0 nM
[42] = test system: Tyrosine-protein kinase ABL1 (Homo sapiens), P00519 [F317L]; settings: Compound concentration 1000.0 nM
[43] = molecular target: Mitogen-activated protein kinase 4 (Homo sapiens) (UniProt P31152); settings: Compound concentration 1000.0 nM
[44] = molecular target: Serine/threonine-protein kinase pim-3 (Homo sapiens) (UniProt Q86V86); settings: Compound concentration 1000.0 nM

Chain of Epithelial discoidin domain-containing receptor 1 (Homo sapiens) (Q08345 whole entry, the tested form may be a part): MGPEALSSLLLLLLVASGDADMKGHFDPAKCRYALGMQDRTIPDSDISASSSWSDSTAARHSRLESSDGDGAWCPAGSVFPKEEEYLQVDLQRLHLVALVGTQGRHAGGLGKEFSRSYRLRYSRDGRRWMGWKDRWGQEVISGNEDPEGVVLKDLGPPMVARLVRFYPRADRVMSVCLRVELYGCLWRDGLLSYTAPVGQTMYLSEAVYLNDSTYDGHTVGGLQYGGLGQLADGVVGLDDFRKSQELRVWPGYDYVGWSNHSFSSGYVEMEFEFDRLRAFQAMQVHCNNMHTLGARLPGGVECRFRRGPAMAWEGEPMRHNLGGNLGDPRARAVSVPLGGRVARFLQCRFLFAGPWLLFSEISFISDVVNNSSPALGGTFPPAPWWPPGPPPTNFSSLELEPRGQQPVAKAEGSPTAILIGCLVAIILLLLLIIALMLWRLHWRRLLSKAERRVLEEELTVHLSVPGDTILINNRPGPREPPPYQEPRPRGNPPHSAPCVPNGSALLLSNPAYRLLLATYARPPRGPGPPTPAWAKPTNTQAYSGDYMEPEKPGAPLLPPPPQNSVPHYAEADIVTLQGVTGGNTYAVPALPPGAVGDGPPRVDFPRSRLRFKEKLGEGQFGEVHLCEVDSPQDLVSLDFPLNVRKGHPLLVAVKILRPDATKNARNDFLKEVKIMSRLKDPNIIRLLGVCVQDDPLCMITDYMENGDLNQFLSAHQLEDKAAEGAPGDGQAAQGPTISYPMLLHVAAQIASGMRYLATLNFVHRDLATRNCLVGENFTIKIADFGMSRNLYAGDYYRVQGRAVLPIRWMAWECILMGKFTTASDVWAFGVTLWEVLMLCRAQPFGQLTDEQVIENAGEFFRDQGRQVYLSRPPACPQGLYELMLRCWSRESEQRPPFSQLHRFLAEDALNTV
Chain of Serine/threonine-protein kinase MARK1 (Homo sapiens) (Q9P0L2 whole entry, looked up): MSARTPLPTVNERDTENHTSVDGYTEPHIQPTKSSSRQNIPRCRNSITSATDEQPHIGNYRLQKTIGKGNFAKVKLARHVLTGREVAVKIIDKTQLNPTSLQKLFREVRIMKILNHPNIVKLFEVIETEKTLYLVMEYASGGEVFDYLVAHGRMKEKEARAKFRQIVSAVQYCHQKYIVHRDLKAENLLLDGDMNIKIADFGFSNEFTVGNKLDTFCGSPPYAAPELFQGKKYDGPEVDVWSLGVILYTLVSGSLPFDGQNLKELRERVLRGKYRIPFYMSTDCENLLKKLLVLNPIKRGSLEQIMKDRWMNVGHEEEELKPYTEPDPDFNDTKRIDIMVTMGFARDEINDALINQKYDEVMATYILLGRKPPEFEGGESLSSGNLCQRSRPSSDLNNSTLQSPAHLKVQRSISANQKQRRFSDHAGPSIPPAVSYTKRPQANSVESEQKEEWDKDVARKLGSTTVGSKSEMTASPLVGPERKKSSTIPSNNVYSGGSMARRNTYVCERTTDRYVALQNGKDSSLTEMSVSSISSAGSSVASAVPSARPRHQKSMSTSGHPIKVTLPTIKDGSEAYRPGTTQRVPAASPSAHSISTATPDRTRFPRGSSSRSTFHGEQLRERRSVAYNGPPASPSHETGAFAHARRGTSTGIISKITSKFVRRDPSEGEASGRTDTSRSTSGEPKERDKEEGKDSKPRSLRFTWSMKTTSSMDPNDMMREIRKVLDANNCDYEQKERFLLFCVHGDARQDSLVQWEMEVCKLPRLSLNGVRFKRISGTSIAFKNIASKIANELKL
Chain of Mitogen-activated protein kinase kinase kinase 13 (Homo sapiens) (O43283 whole entry): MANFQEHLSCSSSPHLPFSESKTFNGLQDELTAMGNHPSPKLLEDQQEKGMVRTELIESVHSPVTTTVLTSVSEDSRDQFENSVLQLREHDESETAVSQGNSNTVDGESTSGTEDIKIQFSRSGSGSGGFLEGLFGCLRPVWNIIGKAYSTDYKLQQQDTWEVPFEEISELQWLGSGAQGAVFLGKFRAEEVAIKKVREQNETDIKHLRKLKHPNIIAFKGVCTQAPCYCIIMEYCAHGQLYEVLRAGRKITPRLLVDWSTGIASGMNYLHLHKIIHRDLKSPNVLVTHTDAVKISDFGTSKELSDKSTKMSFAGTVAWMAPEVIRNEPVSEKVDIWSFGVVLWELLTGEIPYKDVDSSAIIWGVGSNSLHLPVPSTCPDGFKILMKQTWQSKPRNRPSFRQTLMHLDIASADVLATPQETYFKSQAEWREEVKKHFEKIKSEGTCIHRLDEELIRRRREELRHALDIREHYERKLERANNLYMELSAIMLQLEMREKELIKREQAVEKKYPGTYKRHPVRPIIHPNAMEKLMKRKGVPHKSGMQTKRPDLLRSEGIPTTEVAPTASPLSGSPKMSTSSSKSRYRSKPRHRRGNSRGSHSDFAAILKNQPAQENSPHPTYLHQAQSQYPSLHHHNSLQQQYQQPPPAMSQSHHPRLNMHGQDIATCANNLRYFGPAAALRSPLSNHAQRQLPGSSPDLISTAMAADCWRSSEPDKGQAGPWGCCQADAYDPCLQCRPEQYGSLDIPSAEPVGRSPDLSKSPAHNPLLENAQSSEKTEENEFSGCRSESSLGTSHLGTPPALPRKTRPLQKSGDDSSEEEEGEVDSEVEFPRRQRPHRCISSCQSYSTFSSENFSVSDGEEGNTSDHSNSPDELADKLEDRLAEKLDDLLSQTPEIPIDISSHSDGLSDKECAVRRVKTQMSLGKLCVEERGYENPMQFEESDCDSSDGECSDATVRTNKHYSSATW
Chain of Mitogen-activated protein kinase kinase kinase 14 (Homo sapiens) (Q99558 whole entry, looked up): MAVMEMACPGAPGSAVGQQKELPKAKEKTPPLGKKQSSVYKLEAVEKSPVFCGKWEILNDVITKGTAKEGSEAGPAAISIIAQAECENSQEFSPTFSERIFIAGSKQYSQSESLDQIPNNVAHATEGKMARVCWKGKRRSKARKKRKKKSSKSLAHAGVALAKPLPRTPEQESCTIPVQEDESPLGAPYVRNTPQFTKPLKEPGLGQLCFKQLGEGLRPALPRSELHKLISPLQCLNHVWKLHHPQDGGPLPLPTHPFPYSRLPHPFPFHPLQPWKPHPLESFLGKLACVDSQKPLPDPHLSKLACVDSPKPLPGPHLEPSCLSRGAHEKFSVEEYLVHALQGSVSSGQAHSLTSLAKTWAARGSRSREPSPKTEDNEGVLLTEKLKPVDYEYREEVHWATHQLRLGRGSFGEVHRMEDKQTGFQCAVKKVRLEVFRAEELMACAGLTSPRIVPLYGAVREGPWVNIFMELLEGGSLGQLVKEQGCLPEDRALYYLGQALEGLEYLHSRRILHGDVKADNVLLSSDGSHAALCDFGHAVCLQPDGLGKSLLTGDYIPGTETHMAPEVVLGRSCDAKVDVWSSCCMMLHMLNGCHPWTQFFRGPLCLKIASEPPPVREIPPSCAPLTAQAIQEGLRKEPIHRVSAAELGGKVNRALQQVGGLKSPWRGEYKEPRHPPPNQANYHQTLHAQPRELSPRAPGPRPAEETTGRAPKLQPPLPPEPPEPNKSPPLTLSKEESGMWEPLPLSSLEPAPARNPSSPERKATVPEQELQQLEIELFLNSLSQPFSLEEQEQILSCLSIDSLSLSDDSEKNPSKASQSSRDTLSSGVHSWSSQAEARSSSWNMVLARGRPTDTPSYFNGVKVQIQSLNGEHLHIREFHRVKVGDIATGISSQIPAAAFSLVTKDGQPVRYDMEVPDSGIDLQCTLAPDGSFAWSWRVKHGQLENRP
Chain of Phosphatidylinositol 4,5-bisphosphate 3-kinase catalytic subunit gamma isoform (Homo sapiens) (P48736 whole entry, looked up, canonical isoform): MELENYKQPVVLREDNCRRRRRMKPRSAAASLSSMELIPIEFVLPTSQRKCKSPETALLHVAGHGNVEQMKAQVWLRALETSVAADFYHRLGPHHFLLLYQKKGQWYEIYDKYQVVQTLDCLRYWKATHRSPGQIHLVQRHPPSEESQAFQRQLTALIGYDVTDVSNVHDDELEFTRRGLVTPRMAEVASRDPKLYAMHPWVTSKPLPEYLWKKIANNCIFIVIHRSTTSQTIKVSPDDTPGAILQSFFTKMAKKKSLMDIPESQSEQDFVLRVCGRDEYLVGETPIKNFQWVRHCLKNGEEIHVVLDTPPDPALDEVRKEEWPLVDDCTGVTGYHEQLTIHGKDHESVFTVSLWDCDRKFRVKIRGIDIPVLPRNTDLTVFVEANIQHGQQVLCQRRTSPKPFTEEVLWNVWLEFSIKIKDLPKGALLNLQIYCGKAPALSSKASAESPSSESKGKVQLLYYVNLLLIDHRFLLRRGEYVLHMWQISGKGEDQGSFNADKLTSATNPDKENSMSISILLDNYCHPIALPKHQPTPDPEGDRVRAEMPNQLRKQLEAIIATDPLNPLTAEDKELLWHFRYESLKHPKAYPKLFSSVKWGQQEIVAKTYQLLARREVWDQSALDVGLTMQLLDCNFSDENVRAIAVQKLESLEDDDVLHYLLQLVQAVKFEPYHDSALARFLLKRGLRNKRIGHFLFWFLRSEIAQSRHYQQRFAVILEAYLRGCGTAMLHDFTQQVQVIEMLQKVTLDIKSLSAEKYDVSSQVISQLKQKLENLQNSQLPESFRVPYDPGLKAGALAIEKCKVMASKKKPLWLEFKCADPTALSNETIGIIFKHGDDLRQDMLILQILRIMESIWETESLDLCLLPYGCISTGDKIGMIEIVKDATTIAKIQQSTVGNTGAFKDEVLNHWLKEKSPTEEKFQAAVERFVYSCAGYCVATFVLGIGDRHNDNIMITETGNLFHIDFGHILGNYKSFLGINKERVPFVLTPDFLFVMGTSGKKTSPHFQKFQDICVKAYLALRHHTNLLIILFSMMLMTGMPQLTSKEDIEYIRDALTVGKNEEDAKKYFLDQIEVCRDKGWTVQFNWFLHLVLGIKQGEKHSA

Compound: CCCOc1ccc([C@@H]2[C@@H](C(=O)O)[C@H](c3ccc4c(c3)OCO4)CN2CC(=O)Nc2c(CC)cccc2CC)cc1 [A-1806262]
- residual activity [1]: 85%
- residual activity [2]: 87%
- residual activity [3]: 100%
- residual activity [4]: 89%
- residual activity [5]: 94%
- residual activity [6]: 100%
- residual activity [7]: 100%
- residual activity [8]: 100%
- residual activity [9]: 98%
- residual activity [10]: 100%
- residual activity [11]: 100%
- residual activity [12]: 63%
- residual activity [13]: 100%
- residual activity [14]: 93%
- residual activity [15]: 81%
- residual activity [16]: 55%
- residual activity [17]: 82%
- % Inhibition of Control Specific Binding (Mean n=2) [18]: -18.1%
- residual activity [19]: 75%
- residual activity [20]: 94%
- residual activity [21]: 100%
- residual activity [22]: 100%
- residual activity [23]: 93%
- % Inhibition of Control Specific Binding (Mean n=2) [24]: -13.4%
- residual activity [25]: 90%
- % Inhibition of Control Specific Binding (Mean n=2) [26]: 75.9%
- residual activity [27]: 100%
- residual activity [28]: 86%
- residual activity [29]: 100%
- residual activity [30]: 82%
- residual activity [31]: 95%
- residual activity [32]: 57%
- residual activity [33]: 78%
- % Inhibition of Control Specific Binding (Mean n=2) [34]: 6.6%
- residual activity [35]: 87%
- residual activity [36]: 98%
- residual activity [37]: 73%
- residual activity [38]: 94%
- residual activity [39]: 96%
- residual activity [40]: 82%
- residual activity [41]: 73%
- residual activity [42]: 82%
- residual activity [43]: 95%
- residual activity [44]: 95%

Compound: CCCOc1ccc([C@H]2[C@H](C(=O)O)[C@@H](c3ccc4c(c3)OCO4)CN2CC(=O)Nc2c(CC)cccc2CC)cc1 [A-192621]
- residual activity [1]: 94%
- residual activity [2]: 65%
- residual activity [3]: 90%
- residual activity [4]: 100%
- residual activity [5]: 49%
- residual activity [6]: 100%
- residual activity [7]: 86%
- residual activity [8]: 100%
- residual activity [9]: 97%
- residual activity [10]: 100%
- residual activity [11]: 100%
- residual activity [12]: 13%
- residual activity [13]: 100%
- residual activity [14]: 93%
- residual activity [15]: 58%
- residual activity [16]: 88%
- residual activity [17]: 85%
- % Inhibition of Control Specific Binding (Mean n=2) [18]: -35.3%
- residual activity [19]: 47%
- residual activity [20]: 72%
- residual activity [21]: 99%
- residual activity [22]: 100%
- residual activity [23]: 94%
- % Inhibition of Control Specific Binding (Mean n=2) [24]: -12.4%
- residual activity [25]: 100%
- % Inhibition of Control Specific Binding (Mean n=2) [26]: 63.1%
- residual activity [27]: 89%
- residual activity [28]: 93%
- residual activity [29]: 75%
- residual activity [30]: 92%
- residual activity [31]: 80%
- residual activity [32]: 77%
- residual activity [33]: 100%
- % Inhibition of Control Specific Binding (Mean n=2) [34]: 3.3%
- residual activity [35]: 84%
- residual activity [36]: 100%
- residual activity [37]: 65%
- residual activity [38]: 98%
- residual activity [39]: 90%
- residual activity [40]: 60%
- residual activity [41]: 68%
- residual activity [42]: 62%
- residual activity [43]: 93%
- residual activity [44]: 88%
